Source: patent publication EP3006939A1, “Histidine-rich Glycoprotein as a marker for hepatic Farnesoid X receptor activation” (Gilead Sciences, Inc., priority 2014, dated 2016)
Several values for one entry are separate records, joined by “and”; a condition that tells them apart may be missing. Identical values can stand only once. Entries after “also recorded” stand apart in the source; their conditions may differ. Like-named read-outs stand apart in the source and are kept apart here.

Experiments:
HepaRG cells = test: Microarray experiment, genome wide mRNA array analysis; assay type: cell-based, human; conditions: 1 µM, 24 hours, vs DMSO vehicle; for Fold changes to "DMSO", TBP mRNA: control gene
Procedure: HepaRG cells were obtained plated from Biopredic International (# HPR203-MW96, Rennes, France) and cultivated in 6-well plates using the media and protocol supplied by the manufacturer. Cells were cultivated in induction medium (Biopredic International) with 1 µM of PX20350 (E. Hambruch et al., J. Pharmacol. Exp. Ther. 2012, 343, 556) diluted from a 20 mM stock solution in DMSO or DMSO as a vehicle control for 24 hours. Total RNA was isolated following the instructions of the RNeasy 96 RNA isolation kit (Qiagen, Hilde, Germany) and 200 ng total RNA used for a genome wide mRNA array analysis done as a fee for service at the Genomics & Pro-teomics Core Facility of the German Research Facility using the human Sentrix-6 V3 (4213572043) array from Illumina and standard experimental kits and protocols supplied by the manufacturer (Illumina Inc. San Diego U.S.A.).
This upregulation was similar to that (2.7 fold) of the known direct FXR target gene NR0B2 (SHP, Small heterodimer partner). In comparison, TBP mRNA (TATA box binding protein) was not changed in relative abundance (Table 1).

HepG2-FXR5 cells [1] = test: Induction of HRG transcription, RT-qPCR normalized to TBP; assay type: cell-based; conditions: Homo sapiens, 24 hours
Procedure: Huh7 (# JCRB0403) cells were obtained from the Health Science Research Resources Bank, Osaka, Japan. Cells were cultivated in MEM containing 8.6% FCS supplemented with 2 mM L-Alanyl-L-Glutamine (all purchased via Sigma-Aldrich, Munich, Germany) in presence of 1 µM of PX20606 or DMSO as a vehicle for 16 hours. Total RNA from cells grown in 96 well tissue plates (Huh7, HepaRG and 3D human liver microtisues) were isolated following the instructions of the RNeasy 96 RNA isolation kit (Qiagen, Hilde, Germany) and cDNA's were synthesized from 1/25th of the isolated total RNA from one 96 well using Superscript II reverse Transcriptase (Life Technologies, Carlsbad, U.S.A.). Quantitative PCR was performed and analyzed using Absolute QPCR Rox Mix (Life Technologies, Carlsbad, U.S.A.) and a 384-format ABI 7900HT Sequence Detection System (Applied Biosystems, Darmstadt, Germany). Gene expression was expressed in arbitrary units and normalized relative to the housekeeping gene TATA box binding protein (TBP). […]
HepG2-FXR5 cells (described in U. Deuschle et al., PLoS One. 2012, 7, e43044) were cultivated in 96 well plates in RPMI medium supplemented with 8.6% FCS and supplemented with 2 mM L-Alanyl-L-Glutamine (all purchased via Sigma-Aldrich, Munich, Germany). Isolation of total RNA followed by quantitative qPCR was done as described in Example 2.

[2] = tested on: Huh7 human hepatoma cells; test: Induction of HRG and SHP mRNAs, RT-qPCR normalized to TBP; assay type: cell-based; conditions: Huh-7, 16 hours
Procedure: (§1) Huh7 (# JCRB0403) cells were obtained from the Health Science Research Resources Bank, Osaka, Japan. Cells were cultivated in MEM containing 8.6% FCS supplemented with 2 mM L-Alanyl-L-Glutamine (all purchased via Sigma-Aldrich, Munich, Germany) in presence of 1 µM of PX20606 or DMSO as a vehicle for 16 hours. Total RNA from cells grown in 96 well tissue plates (Huh7, HepaRG and 3D human liver microtisues) were isolated following the instructions of the RNeasy 96 RNA isolation kit (Qiagen, Hilde, Germany) and cDNA's were synthesized from 1/25th of the isolated total RNA from one 96 well using Superscript II reverse Transcriptase (Life Technologies, Carlsbad, U.S.A.). Quantitative PCR was performed and analyzed using Absolute QPCR Rox Mix (Life Technologies, Carlsbad, U.S.A.) and a 384-format ABI 7900HT Sequence Detection System (Applied Biosystems, Darmstadt, Germany). Gene expression was expressed in arbitrary units and normalized relative to the housekeeping gene TATA box binding protein (TBP). The TBP normalized mRNA levels were plotted for HRG and SHP in Figure 1 (number of replicates n = 6). Table 2: Primer and probe sequences.

HepG2-FXR5 cells [3] = test: Detection of secreted HRG in cell supernatant by Ni-NTA agarose collection and Western blot; assay type: cell-based, human; conditions: 1 µM, 48 hours, vs DMSO, Western blot
Procedure: HepG2-FXR5 cells (described in U. Deuschle et al., PLoS One. 2012, 7, e43044) were cultivated in T75 flasks in RPMI medium supplemented with 0,2% BSA, 2 mM L-Alanyl-L-Glutamine (Sigma-Aldrich, Munich, Germany) and 1x Insulin-Transferrin-Selenium (#51500-056, Life Technolgies, Carlsbad, USA). Each 10 ml supernatant from cells grown in presence of 1 µM PX20606 or DMSO as vehicle for 48 hours were mixed with 100 µL Ni-NTA agarose slurry (#1018240, Qiagen, Hilden, Germany) for 1 h, the slurry was collected by centrifugation and after 3 washes with 10 mL 1xPBS resuspended in 100 µL SDS sample buffer. Western blot was performed (as described in U. Deuschle et al., PLoS One 2012, 7, e43044) and HRG detected using polyclonal mouse-anti human HRG antibodies (ab67807, Abcam, Cambridge, UK).

human FXR = target: T1, human FXR (Homo sapiens, UniProt Q96RI1); test: Luciferase reporter assay with human HRG promoter fragment in Huh7 cells co-transfected with an FXR expression plasmid; assay type: cell-based; conditions: FXR exogenously expressed, 1 µM, 16 h
T1 sequence (Q96RI1 1-486): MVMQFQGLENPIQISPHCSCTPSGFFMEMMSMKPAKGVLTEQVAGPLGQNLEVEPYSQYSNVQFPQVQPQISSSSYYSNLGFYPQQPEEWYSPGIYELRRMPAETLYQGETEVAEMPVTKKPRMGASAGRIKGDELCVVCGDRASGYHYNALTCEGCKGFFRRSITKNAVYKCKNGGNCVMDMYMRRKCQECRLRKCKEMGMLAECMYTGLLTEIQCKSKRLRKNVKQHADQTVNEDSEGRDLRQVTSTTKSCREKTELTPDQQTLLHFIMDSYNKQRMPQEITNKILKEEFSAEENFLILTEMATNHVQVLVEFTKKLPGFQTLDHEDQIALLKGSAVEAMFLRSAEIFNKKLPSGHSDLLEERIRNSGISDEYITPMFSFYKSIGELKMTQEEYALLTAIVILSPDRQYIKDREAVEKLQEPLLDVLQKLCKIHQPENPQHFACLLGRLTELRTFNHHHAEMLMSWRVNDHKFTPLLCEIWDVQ
Source text: A human HRG promoter fragment was cloned as a Xhol-Hindlll fragment (from position -1,973 till +8 with respect to the mRNA starting nucleotide at +1) using the oligonucleotides […] (SEQ ID No. 10) and […] (SEQ ID No. 11) into the Xhol and Hindlll sites of pGL2basic (Promega, Madison, U.S.A.). The IR1 and ER2 sites were mutated using the primers of Table 3. Table 3: Primer sequences
The reporter plasmids pGL2-FXR-RE (FXR-RE), pGL2-PHRG (wt), pGL2-PHRG-IR1mut (IR1mut) and pGL2-PHRG-ER2mut (ER2mut) and pGL2-PHRG-IR1/ER2 (DM) (each 50 ng/well), were co-transfected with pTRex-Dest30-hFXR (20 ng/well) and pCMV-RL (5 ng/well, constitutively expressing the Renilla luciferase under control of a CMV promotor as an internal control) into Huh7 cells using lipofection with Polyethylenimine and cultivated in presence or absence of 1 µM of the FXR agonist PX20606 or DMSO as a vehicle control for 16 h followed by cell lysis and determination of luciferase activities as described in U. Deuschle et al., PLoS One 2012, 7, e43044.

[4] = tested on: human primary Upcyte® Hepatocytes; test: Induction of HRG transcription, RT-qPCR normalized to TBP; assay type: cell-based; conditions: Hepatocyte, 24 hours
Procedure: as §1, with “Table 2: Primer and probe sequences.” left out
Upcyte® hepatocytes (Cat# UH0-000-KA00 donor 10-03) derived from primary hepatocytes of a donor were cultivated in 96 well plates in high performance medium (Medicyte, Heidel-berg, Germany). Isolation of total RNA followed by quantitative qPCR was done as described in Example 2.

[5] = read-out: HRG mRNA upregulated compared to DMSO
[6] = read-out: known direct FXR target gene (SHP mRNA) upregulated compared to DMSO

Fold changes to "DMSO", NR0B2 (SHP) mRNA (HepaRG cells) | Fold changes to "DMSO", HRG mRNA (HepaRG cells; 1440 min) | Fold changes to "DMSO", TBP mRNA (HepaRG cells; 1440 min) | activity of HRG promoter with mutated ER-2 site, luciferase reporter (human FXR) | activity of HRG promoter with mutated IR-1 site, luciferase reporter (human FXR) | activity of HRG promoter (wt, -1973 to +8) luciferase reporter (human FXR; vs DMSO) | SMILES | Fold changes to "DMSO", TBP mRNA (HepaRG cells) | fold induction at 1 µM (HepG2-FXR5 cells [1]; [5]) | fold induction at 1 µM (HepG2-FXR5 cells [1]; [6]) | fold induction at 1 µM [2, 5] | fold induction at 1 µM [2, 6] | amount of secreted HRG (HepG2-FXR5 cells [3]) | fold induction at 1 µM [4, 5] | fold induction at 1 µM [4, 6]
2.7 fold | 2 fold and 2.0 fold | 1.0 | – | – | – | CN(Cc1ccc(C(=O)O)cc1)c1ccc(OCc2c(-c3c(Cl)cccc3Cl)noc2C2CC2)nc1C(F)(F)F [PX20350] | not changed | – | – | – | – | – | – | –
– | – | – | loss of FXR/FXR agonist responsitivity | reduce the activity | active | O=C(O)c1ccc(C2CC2c2ccc(OCc3c(-c4c(Cl)cccc4Cl)noc3C3CC3)cc2Cl)cc1 (centres unmarked) [PX20606, 4-(2-(2-chloro-4-((5-cyclopropyl-3-(2,6-dichlorophenyl)isoxazol-4-yl)methoxy)phenyl)cyclopropyl)benzoic acid] | – | ~20 | ~6 | ~3.5 | ~4 | increased; also recorded: up-regulated | ~11 | ~10
